Laboratory results from article PMC5986654, “Combined HAT/EZH2 modulation leads to cancer-selective cell death” (Oncotarget, 2018).

Legend:
leukemia NB4 cells = assay: Cell death induction in NB4 cells (FACS, pre-G1); assay type: cell-based, human; details: for effect on cell death, single inhibitor: C646 5 µM, GSK126 10 µM, used separately; for % Cell death NB4 cells: 3 μM, 30 h
GCN5 = GCN5 (Homo sapiens, UniProt Q92830); assay: HAT in vitro assay, 10-dose IC50, GCN5; assay type: biochemical; details: substrate Histone H3, 3 μM Acetyl-CoA; read-out: Compound IC50 GCN5
Experimental: (§1) For HAT in vitro assay, MC2884 activity was also tested in vitro and IC50 was calculated as indicated in the scheme. […] Reactions were carried out at 3 μM Acetyl-CoA. Empty cells indicate no inhibition or compound activity that could not be fit to an IC50 curve.

pCAF = pCAF (Homo sapiens, UniProt Q92831); assay: HAT in vitro assay, 10-dose IC50, pCAF; assay type: biochemical; details: substrate Histone H3, 3 μM Acetyl-CoA; read-out: Compound IC50 pCAF
Experimental: as §1

CBP = CBP (Homo sapiens, UniProt Q92793); assay: HAT in vitro assay, 10-dose IC50, CBP; assay type: biochemical; details: substrate Histone H3, 3 μM Acetyl-CoA; read-out: Compound IC50 CBP
Experimental: as §1

KAT5 = KAT5 (Homo sapiens, UniProt Q92993); assay: HAT in vitro assay, 10-dose IC50, KAT5; assay type: biochemical; details: substrate Histone H2A, 3 μM Acetyl-CoA; read-out: Compound IC50 KAT5
Experimental: as §1

[1] = system: neuroblastoma SHSY5Y cells; assay: Cell death induction in SHSY5Y cells; assay type: cell-based; details: 3 μM, 48 h
Experimental: When tested in neuroblastoma SHSY5Y cells at tetrahydro-4H -pyran-4-one MC2912 failed in inducing
3 μM for 48 h, MC2884 and its analogues furnished cell death in SHSY5Y cells, whereas its thio-analogue
(Supplementary SAR Table 1). In general, the SHSY5Y similarly to what observed in NB4 cells.
than NB4 cells. Anyway, also in this cell line the death in both cell lines such as MC2910, 2912, 2909,
(MC2909), and bis 3,5-dibromophenyl (MC2910) were acetylation and EZH2 deregulation (SAR Figure 2). In […]
3-phenyl-1-propan-1-one chain at N1 (MC3187), which 3).

Sequence of KAT5 (Q92993 whole entry): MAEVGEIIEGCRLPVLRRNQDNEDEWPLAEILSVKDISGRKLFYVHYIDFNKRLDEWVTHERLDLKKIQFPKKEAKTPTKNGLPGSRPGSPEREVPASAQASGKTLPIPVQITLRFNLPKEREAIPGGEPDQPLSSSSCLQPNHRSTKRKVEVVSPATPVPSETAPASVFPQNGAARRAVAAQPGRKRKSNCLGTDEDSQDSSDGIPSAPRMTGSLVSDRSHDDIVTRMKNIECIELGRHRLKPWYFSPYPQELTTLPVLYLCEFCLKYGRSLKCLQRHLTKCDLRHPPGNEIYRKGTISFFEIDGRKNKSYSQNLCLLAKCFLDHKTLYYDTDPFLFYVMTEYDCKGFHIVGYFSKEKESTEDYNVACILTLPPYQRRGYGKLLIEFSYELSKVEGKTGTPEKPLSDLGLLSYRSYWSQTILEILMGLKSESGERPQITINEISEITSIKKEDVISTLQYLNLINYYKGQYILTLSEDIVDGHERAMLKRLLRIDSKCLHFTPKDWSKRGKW
Sequence of GCN5 (Q92830 whole entry): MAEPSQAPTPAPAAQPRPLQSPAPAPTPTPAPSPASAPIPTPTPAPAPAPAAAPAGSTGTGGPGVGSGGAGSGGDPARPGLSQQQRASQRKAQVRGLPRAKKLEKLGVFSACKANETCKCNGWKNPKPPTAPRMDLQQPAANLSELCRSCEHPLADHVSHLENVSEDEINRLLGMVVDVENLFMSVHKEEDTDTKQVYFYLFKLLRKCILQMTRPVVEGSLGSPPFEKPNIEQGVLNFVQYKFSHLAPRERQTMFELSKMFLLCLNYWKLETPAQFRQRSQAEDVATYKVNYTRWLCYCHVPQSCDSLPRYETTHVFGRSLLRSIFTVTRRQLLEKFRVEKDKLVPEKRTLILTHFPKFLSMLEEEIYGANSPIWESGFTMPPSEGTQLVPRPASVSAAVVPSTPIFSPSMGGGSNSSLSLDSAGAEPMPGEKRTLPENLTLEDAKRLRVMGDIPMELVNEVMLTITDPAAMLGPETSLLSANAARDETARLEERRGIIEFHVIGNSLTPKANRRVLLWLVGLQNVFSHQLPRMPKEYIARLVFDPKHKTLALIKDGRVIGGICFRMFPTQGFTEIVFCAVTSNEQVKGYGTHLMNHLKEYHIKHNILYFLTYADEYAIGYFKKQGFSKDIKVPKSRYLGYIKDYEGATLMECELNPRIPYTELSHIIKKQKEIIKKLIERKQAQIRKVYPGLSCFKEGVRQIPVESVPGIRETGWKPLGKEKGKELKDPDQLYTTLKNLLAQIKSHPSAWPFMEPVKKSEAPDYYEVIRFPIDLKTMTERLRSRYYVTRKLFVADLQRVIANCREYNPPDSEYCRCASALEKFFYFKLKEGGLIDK
Sequence of pCAF (Q92831 whole entry): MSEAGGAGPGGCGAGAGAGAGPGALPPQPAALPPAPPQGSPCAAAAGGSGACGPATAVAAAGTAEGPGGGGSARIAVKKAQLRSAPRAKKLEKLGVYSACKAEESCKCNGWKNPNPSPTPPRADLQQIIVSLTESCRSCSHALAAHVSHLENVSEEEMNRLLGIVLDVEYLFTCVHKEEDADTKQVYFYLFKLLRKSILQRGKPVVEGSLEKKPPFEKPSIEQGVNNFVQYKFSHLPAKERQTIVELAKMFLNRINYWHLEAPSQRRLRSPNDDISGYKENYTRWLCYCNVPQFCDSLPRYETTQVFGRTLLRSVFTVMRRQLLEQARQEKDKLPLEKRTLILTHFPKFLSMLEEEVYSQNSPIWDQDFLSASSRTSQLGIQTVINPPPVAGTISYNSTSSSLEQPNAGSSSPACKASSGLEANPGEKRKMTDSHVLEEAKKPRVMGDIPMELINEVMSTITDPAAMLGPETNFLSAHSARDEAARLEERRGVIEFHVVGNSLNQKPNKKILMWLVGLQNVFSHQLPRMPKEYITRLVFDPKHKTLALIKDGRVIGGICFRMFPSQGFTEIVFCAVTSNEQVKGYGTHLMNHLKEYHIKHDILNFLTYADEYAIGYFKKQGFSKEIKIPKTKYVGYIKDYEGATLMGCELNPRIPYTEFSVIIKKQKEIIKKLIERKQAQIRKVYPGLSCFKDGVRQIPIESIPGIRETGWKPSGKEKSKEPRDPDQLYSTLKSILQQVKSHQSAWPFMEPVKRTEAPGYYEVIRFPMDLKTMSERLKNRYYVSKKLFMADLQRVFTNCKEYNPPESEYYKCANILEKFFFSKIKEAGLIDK
Sequence of CBP (Q92793 whole entry): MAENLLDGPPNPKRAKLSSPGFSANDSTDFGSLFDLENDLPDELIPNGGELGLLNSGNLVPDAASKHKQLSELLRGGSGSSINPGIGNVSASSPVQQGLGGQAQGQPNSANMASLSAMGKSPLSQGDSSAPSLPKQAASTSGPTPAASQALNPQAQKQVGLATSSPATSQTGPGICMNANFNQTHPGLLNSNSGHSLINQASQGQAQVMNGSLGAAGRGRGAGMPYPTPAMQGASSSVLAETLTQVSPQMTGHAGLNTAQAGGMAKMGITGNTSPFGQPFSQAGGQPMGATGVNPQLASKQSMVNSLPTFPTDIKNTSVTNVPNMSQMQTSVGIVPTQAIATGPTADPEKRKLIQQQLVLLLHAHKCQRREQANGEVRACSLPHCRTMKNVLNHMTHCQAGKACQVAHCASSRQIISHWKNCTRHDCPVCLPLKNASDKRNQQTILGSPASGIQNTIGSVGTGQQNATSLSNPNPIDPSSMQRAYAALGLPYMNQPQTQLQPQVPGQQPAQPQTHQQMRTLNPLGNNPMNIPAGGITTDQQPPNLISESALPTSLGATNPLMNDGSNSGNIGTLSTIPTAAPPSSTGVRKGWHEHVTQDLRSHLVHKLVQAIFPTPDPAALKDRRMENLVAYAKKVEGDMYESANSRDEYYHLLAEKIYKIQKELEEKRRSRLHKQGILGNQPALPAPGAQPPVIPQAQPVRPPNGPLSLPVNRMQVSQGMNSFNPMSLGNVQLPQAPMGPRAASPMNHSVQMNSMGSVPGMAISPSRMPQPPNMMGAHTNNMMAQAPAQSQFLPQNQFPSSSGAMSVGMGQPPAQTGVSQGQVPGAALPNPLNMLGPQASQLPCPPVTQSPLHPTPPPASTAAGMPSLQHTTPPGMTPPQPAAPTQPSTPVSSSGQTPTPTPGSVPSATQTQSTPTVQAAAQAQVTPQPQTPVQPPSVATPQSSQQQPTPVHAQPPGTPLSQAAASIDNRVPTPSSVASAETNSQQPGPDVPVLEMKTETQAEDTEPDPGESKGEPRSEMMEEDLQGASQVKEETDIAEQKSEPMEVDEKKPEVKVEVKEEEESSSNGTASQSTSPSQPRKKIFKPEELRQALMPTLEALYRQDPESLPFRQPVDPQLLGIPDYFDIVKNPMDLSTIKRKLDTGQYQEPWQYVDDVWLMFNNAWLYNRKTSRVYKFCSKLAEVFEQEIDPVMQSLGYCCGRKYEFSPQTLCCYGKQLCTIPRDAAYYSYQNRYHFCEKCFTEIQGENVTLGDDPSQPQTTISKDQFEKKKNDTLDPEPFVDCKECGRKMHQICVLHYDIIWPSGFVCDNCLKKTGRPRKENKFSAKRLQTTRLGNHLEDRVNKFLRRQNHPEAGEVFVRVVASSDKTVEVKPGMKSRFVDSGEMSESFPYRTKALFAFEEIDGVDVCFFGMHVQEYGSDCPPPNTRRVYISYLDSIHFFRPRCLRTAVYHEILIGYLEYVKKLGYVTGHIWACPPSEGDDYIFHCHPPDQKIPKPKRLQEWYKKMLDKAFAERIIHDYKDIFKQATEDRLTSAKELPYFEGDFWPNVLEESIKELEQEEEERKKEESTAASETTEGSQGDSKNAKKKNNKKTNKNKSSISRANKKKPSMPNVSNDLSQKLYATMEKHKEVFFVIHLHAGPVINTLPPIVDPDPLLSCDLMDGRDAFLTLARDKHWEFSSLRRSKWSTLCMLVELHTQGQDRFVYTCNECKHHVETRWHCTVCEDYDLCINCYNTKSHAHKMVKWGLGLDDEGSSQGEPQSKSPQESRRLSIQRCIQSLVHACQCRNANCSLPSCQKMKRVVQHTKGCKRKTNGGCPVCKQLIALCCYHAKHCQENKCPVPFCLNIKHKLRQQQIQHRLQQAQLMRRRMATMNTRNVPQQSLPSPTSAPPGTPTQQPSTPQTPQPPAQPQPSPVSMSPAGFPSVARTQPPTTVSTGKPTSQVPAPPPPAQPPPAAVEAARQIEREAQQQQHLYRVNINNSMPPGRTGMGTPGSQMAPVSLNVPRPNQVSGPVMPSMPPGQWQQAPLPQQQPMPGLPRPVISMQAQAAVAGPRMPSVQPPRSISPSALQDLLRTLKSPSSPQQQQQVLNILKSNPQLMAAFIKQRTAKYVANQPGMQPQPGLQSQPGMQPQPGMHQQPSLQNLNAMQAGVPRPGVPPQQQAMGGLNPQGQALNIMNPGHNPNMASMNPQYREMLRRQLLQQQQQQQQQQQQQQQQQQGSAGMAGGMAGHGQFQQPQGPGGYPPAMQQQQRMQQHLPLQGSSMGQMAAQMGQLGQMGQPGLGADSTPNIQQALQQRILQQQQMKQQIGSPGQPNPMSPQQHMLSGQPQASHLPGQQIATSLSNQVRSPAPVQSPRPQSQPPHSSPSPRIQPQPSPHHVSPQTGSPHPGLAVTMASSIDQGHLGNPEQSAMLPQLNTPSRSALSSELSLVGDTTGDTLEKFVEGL

Compound	% Cell death NB4 cells (leukemia NB4 cells)	% Cell death SHSY5Y cells [1]	also measured
CN(C)CC[C@H](CSc1ccccc1)Nc1ccc(S(=O)(=O)NC(=O)c2ccc(N3CCN(Cc4ccccc4-c4ccc(Cl)cc4)CC3)cc2)cc1[N+](=O)[O-] [ABT-737, reference compound]	–	–	cell death, ABT-737 with addition of MC2884 (leukemia NB4 cells; NB4 cells, ABT-737 1 µM plus MC2884 at concentrations that alone induced little apoptosis): up to 60%
CCCCCCCCCCCCCCCc1cccc(O)c1C(=O)O [Anacardic Acid]	–	–	IC50 (GCN5): 38.6 µM; IC50 (pCAF): 38.8 µM
CC1=NN(c2ccc(C(=O)O)cc2)C(=O)/C1=C\c1ccc(-c2cc(C)c(C)cc2[N+](=O)[O-])o1 [C646, reference compound]	–	–	IC50 (CBP): 0.0787 µM; IC50 (KAT5): 20.4 µM; effect on cell death, single inhibitor (leukemia NB4 cells; NB4 cells): no effects
CC[C@H](C)n1cc(C)c2c(C(=O)NCc3c(C)cc(C)[nH]c3=O)cc(-c3ccc(N4CCNCC4)nc3)cc21 [GSK126, reference compound]	–	–	effect on cell death, single inhibitor (leukemia NB4 cells; NB4 cells): no effects
O=C(/C=C/c1ccc(Br)cc1)/C=C/c1ccc(Br)cc1 [MC2886]	0,56%	1,2%	–
O=C1C(=Cc2ccccc2Br)CN(Cc2ccccc2)CC1=Cc1ccccc1Br [MC2908]	30.3%	9.2%	–
O=C1C(=Cc2ccc(Br)cc2)CN(Cc2ccccc2)CC1=Cc1ccc(Br)cc1 [MC2909]	8.8%	4.7%	–
O=C1/C(=C/c2cccc(Br)c2)CCC/C1=C\c1cccc(Br)c1 [MC2911]	0,76%	0,8%	–
O=C1C(=Cc2cccc(Br)c2)CSCC1=Cc1cccc(Br)c1 [MC2913]	52.7%	23.9%	–
CN1CC(=Cc2cccc(Br)c2)C(=O)C(=Cc2cccc(Br)c2)C1 [MC2914]	36%	9.0%	–
O=C1C(=Cc2cccc(Br)c2)CN(C(=O)c2ccccc2)CC1=Cc1cccc(Br)c1 [MC3146]	13.2%	5.6%	–
O=C1C(=Cc2cccc(Br)c2)CN(C(=O)CCc2ccccc2)CC1=Cc1cccc(Br)c1 [MC3187]	28.9%	19.9%	–
O=C1C(=Cc2cccc(Br)c2)CN(CC(=O)c2ccccc2)CC1=Cc1cccc(Br)c1 [MC3207]	38%	7.0%	–
O=C1C(=Cc2cccc(Br)c2)CN(CCc2ccccc2)CC1=Cc1cccc(Br)c1 [MC3269]	62.5%	19.2%	–
O=C1/C(=C/c2ccc(O)cc2Br)CN(Cc2ccccc2)C/C1=C\c1ccc(O)cc1Br [MC3395]	0,53%	1,0%	–
